Legend:
[1] = Antiproliferative activity against human HBL1 cells expressing BTK C481S mutant assessed as growth inhibition; format: functional
[2] = target: Cellular tumor antigen p53 (Homo sapiens) (UniProt P04637); experiment: Induction of p53 stabilization in human HCT-116 cells assessed as fold increase by Western blot analysis; format: cell-based
[3] = target: von Hippel-Lindau disease tumor suppressor/Steroid hormone receptor ERR1 (Homo sapiens) (UniProt P11474+P40337); experiment: Protac activity at VHL/ERRalpha in human MCF7 cells assessed as maximum degradation; format: cell-based
Chain of von Hippel-Lindau disease tumor suppressor/Steroid hormone receptor ERR1 (Homo sapiens) (P40337 whole entry, looked up, one chain of several): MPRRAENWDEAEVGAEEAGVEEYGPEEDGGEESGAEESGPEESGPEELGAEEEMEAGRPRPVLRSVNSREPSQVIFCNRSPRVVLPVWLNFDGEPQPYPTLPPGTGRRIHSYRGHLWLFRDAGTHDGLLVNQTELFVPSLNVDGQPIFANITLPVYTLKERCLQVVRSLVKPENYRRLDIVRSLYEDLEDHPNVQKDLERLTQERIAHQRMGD

[4] = target: T1, Steroid hormone receptor ERR1 (Homo sapiens) (UniProt P11474); experiment: In vivo protac activity at ERRalpha in human MDA-MB-231 cells xenografted mouse assessed as reduction in ERRalpha level in tumor at 100 mg/kg, ip administered 3 times a day; format: functional, organism-based; set-up: scale not given: the % may be the effect or the level left
T1 sequence (whole entry): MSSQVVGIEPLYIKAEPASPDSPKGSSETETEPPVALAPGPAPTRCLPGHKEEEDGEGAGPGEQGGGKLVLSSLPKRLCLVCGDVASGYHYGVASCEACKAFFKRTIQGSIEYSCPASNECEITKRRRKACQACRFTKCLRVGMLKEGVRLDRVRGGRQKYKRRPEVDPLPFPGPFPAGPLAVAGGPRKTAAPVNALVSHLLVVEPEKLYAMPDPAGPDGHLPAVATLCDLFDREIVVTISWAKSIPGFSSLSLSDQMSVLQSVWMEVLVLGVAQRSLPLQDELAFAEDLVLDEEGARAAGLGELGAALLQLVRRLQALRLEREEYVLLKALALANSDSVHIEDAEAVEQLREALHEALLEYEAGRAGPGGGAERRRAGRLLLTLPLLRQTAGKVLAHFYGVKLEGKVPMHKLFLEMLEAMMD

Chain of Cellular tumor antigen p53 (Homo sapiens) (P04637 whole entry, looked up): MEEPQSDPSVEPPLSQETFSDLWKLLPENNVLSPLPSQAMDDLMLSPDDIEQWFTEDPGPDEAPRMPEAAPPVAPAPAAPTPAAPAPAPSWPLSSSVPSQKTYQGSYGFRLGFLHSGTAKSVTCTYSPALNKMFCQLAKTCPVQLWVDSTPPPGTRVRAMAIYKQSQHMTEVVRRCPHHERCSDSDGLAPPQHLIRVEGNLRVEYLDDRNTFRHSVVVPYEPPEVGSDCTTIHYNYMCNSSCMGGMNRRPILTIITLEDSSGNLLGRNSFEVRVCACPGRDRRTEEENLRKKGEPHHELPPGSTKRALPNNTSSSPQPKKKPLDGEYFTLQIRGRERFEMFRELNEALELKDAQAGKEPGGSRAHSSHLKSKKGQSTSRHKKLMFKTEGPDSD

Molecule `Nc1ncnc2c1c(-c1ccc(Oc3ccccc3)cc1)nn2[C@@H]1CCCN(C(=O)c2cn(CCOCCOCCOCCNc3cccc4c3C(=O)N(C3CCC(=O)NC3=O)C4=O)nn2)C1` (stereo not given in full) has a GI50 [1] of 28 nM.

With `COc1cc(C(=O)NCCOCCOCCOCCNC(=O)C[C@@H]2N=C(c3ccc(Cl)cc3)C3C(C)=C(C)SC3n3c(C)nnc32)ccc1NC(=O)[C@@H]1N[C@@H](CC(C)(C)C)[C@](C#N)(c2ccc(Cl)cc2F)[C@H]1c1cccc(Cl)c1F` (stereo not given in full) the fold change (FC) [2] was 5.9.

`C=CC(=O)N1CCC[C@@H](n2nc(-c3ccc(Oc4ccccc4)cc3)c3c(N)ncnc32)C1` [IBRUTINIB] showed a GI50 [1] of 700 nM.

Molecule `COc1cc(/C=C2/SC(=O)N(CCOCCC(=O)N[C@@H](C(=O)N3C[C@H](O)C[C@H]3C(=O)Nc3ccc(-c4scnc4C)cc3)C(C)(C)C)C2=O)ccc1Oc1ccc(C#N)cc1C(F)(F)F` has an Emax [3] of 86% and an Activity [4] of 39%.
